Assay results as given in patent publication US20050113577A1, “Solid forms of slats with tyrosine kinase activity” (priority 2002, published 2005).
Each block holds one molecule with its values, some of them ahead of it.

What was measured:
[1] = biological target: T1, human KDR (Homo sapiens, UniProt P35968); assay: VEGF Receptor Kinase Assay; assay type: biochemical; conditions: tested by the assays described (KDR, HUVEC, Flt-1, Flt-3); no values given
T1 construct: cloning the cytoplasmic domain of the KDR kinase as an in frame fusion at the carboxy terminus of the GST gene; made in house; host or cells: Spodoptera frugiperda (Sf21) insect cells, baculovirus vector pAcG2T
T1 sequence (P35968 786-1356 limits assumed): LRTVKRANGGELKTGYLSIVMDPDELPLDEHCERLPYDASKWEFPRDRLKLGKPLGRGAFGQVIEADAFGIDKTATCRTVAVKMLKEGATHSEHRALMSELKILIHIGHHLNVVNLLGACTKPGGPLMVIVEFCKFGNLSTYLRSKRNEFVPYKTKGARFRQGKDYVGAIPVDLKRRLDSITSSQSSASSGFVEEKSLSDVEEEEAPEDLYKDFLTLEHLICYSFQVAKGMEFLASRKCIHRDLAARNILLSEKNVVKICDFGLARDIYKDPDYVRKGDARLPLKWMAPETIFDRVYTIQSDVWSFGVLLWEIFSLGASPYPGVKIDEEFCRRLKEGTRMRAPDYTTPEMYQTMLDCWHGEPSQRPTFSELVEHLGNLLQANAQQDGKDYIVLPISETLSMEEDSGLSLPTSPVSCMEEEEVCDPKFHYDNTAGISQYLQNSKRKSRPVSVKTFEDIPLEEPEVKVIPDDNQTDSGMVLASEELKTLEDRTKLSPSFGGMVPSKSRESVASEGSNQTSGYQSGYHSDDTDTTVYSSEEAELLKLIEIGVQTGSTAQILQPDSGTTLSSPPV
Description: Other assays are known in the literature and could be readily performed by those of skill in the art (see, for example, Dhanabal et al., Cancer Res. 59:189-197; Xin et al., J. Biol. Chem. 274:9116-9121; Sheu et al., Anticancer Res. 18:4435-4441; Ausprunk et al., Dev. Biol. 38:237-248; Gimbrone et al., J. Natl. Cancer Inst. 52:413-427; Nicosia et al., In Vitro 18:538-549).
VEGF receptor kinase activity is measured by incorporation of radio-labeled phosphate into polyglutarnic acid, tyrosine, 4:1 (pEY) substrate. The phosphorylated pEY product is trapped onto a filter membrane and the incorporation of radio-labeled phosphate quantified by scintillation counting.
The intracellular tyrosine kinase domains of human KDR (Tennan, B. I. et al. Oncogene (1991) vol. 6, pp. 1677-1683.) and Flt-1 (Shibuya, M. et al. Oncogene (1990) vol. 5, pp. 519-524) were cloned as glutathione S-transferase (GST) gene fusion proteins. This was accomplished by cloning the cytoplasmic domain of the KDR kinase as an in frame fusion at the carboxy terminus of the GST gene. Soluble recombinant GST-kinase domain fusion proteins were expressed in Spodoptera frugiperda (Sf21) insect cells (Invitrogen) using a baculovirus expression vector (pAcG2T, Pharmingen). […]

[2] = Solubility in water and organic solvents at room temperature (suspended for 7 days); assay type: physicochemical
Description: [table] The solubility of Form A HCl Salt at room temperature was determined in water and several organic solvents that can be used in pharmaceutical processing.

[3] = Solubility in various aqueous solvent systems measured for 20 hours; assay type: physicochemical
Description: [table] The solubility of Form A in various aqueous solvent systems was measured for a period of 20 hours.

[4] = Solid form stability in suspension/slurry (XRPD); assay type: physicochemical
Description: An X-ray powder diffraction pattern of Form A is indicative of a crystalline material with multiple diffraction peaks between 5° and 30° 2-theta.

[5] = Partition coefficient between 1-octanol and water; assay type: physicochemical; conditions: 1-octanol/water; pH (equilibrium) 3.8 (native); 0.033 mg/mL in aqueous phase at start
Description: Partition coefficient of Form A between I-octanol and water were determined at the native pH of the HCl Salt (Table III).

[6] = Hygroscopicity, step isotherm program 0 to 95% RH; assay type: physicochemical; conditions: 25° C.
Description: The hygroscopicity of Form A was determined at 25° C. using a step isotherm program for relative humidities from 0 to 95% RH under nitrogen flow.

kinase inhibitory activity [1]: inhibits the kinase KDR
SMILES: CS(=O)(=O)N1CCN(Cc2ccc3[nH]c(-c4cc5ccccc5[nH]c4=O)cc3c2)CC1 [Compound 1-11, 3-[5-(4-Methanesulfonyl-piperazin-1-ylmethyl)-1H-indol-2-yl]-1H-quinolin-2-one]

Solubility ([2]; Aqueous ETOH (50%)): 4.34 mg/mL
Solubility ([2]; Aqueous IPA (50%)): 3.99 mg/mL
Solubility ([2]; Ethanol): 0.13 mg/mL
Solubility ([2]; Isopropanol): 0.057 mg/mL
Solubility ([2]; Water): 0.26 mg/mL
Solubility ([3]; 10% EtOH): 0.38 mg/mL
Solubility ([3]; 10% IPA): 0.47 mg/mL
Solubility ([3]; 25% EtOH): 1.06 mg/mL
Solubility ([3]; 25% IPA): 1.78 mg/mL
Solubility ([3]; 50% Acetone): 10.66 mg/mL
Solubility ([3]; 50% EtOH): 3.82 mg/mL
Solubility ([3]; 50% IPA): 4.39 mg/mL
Solubility ([3]; 75% EtOH): 3.86 mg/mL
Solubility ([3]; 75% IPA): 2.29 mg/mL
Solubility ([3]; Acetone): 0.061 mg/mL
Change in crystal structure (XRPD) ([4]; suspended in aqueous ethanol for seven days at RT): No change in crystal structure
log P (log Ko/w) [5]: −4.34
Hygroscopicity ([6]; 0 to 95% RH under nitrogen flow): not hygroscopic
Moisture reversibly adsorbed ([6]; 75% RH): approximately 1%
SMILES: CS(=O)(=O)N1CCN(Cc2ccc3[nH]c(-c4cc5ccccc5[nH]c4=O)cc3c2)CC1.Cl [Form A, hydrochloride salt of 3-[5-(4-methanesulfonyl-piperazin-1-ylmethyl)-1H-indol-2-yl]-1H-quinolin-2-one]

Solid form after slurry ([4]; slurry in water at room temperature for seven days): provided Form D crystalline solid
SMILES: CS(=O)(=O)N1CCN(Cc2ccc3[nH]c(-c4cc5ccccc5[nH]c4=O)cc3c2)CC1.Cl [Form E, hydrochloride salt of 3-[5-(4-methanesulfonyl-piperazin-1-ylmethyl)-1H-indol-2-yl]-1H-quinolin-2-one]
